In PubChem BioAssay AID1918991 (Molecular Pharmacology Branch, DTP, NCI, 2023):
Where “and” joins values, the source holds several entries; their conditions need not be identical. Equal entries are not always repeated.

Tested on: 186277-243-T-J2-PDC complex spheroid growth
Test: Anticancer human tumor 186277-243-T-J2-PDC patient-derived colon adenocarcinoma cell line growth inhibition [AhR]
Details: for viability, T/C: stronger effect = lower value; active = viability on the fitted dose curve at most 10% of control; inactive = the rest
Method in brief: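 Complex tumor spheroids co-cultured with HUVEC and human MSC stroma; AhR antagonists tested in combination with standard-of-care and investigational agents. Top concentration at or near clinical Cmax (else 10 microM), half-log dilutions; growth expressed as percent test/control.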

[1] = curve of first compound, second compound 0.1 µM
[2] = curve of first compound, second compound 0.316 µM
[3] = curve of first compound, second compound 1 µM
[4] = curve of first compound, second compound 3.16 µM
[5] = curve of first compound, second compound 10 µM
[6] = second compound 0.1 µM, first compound 0.0316 µM
[7] = second compound 0.1 µM, first compound 0.1 µM
[8] = second compound 0.1 µM, first compound 0.316 µM
[9] = second compound 0.1 µM, first compound 1 µM
[10] = second compound 0.1 µM, first compound 3.16 µM
[11] = second compound 0.1 µM, first compound 10 µM
[12] = second compound 0.316 µM, first compound 0.0316 µM
[13] = second compound 0.316 µM, first compound 0.1 µM
[14] = second compound 0.316 µM, first compound 0.316 µM
[15] = second compound 0.316 µM, first compound 1 µM
[16] = second compound 0.316 µM, first compound 3.16 µM
[17] = second compound 0.316 µM, first compound 10 µM
[18] = second compound 1 µM, first compound 0.0316 µM
[19] = second compound 1 µM, first compound 0.1 µM
[20] = second compound 1 µM, first compound 0.316 µM
[21] = second compound 1 µM, first compound 1 µM
[22] = second compound 1 µM, first compound 3.16 µM
[23] = second compound 1 µM, first compound 10 µM
[24] = second compound 3.16 µM, first compound 0.0316 µM
[25] = second compound 3.16 µM, first compound 0.1 µM
[26] = second compound 3.16 µM, first compound 0.316 µM
[27] = second compound 3.16 µM, first compound 1 µM
[28] = second compound 3.16 µM, first compound 3.16 µM
[29] = second compound 3.16 µM, first compound 10 µM
[30] = second compound 10 µM, first compound 0.0316 µM
[31] = second compound 10 µM, first compound 0.1 µM
[32] = second compound 10 µM, first compound 0.316 µM
[33] = second compound 10 µM, first compound 1 µM
[34] = second compound 10 µM, first compound 3.16 µM
[35] = second compound 10 µM, first compound 10 µM
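Also: spheroids exposed to compounds for seven days before the viability read.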
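For viability, T/C in this document: luminescent signal used as a stand-in for viable cell amount; 100% = DMSO vehicle control wells.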

COc1cc(Nc2ncc3c(n2)-c2ccc(Cl)cc2C(c2c(F)cccc2OC)=NC3)ccc1C(=O)O + Cc1cncc(-c2nc(NCCc3c[nH]c4ccccc34)c3ncn(C(C)C)c3n2)c1
< 31.6 nM: IC50 [5]
> 10000 nM: IC50 [1] | IC50 [2] | IC50 [3] | IC50 [4]
inactive: viability, T/C [6] 90.2% | viability, T/C [7] 77.9% | viability, T/C [8] 70.2% | viability, T/C [9] 61.6% | viability, T/C [10] 70.5% | viability, T/C [11] 74.5% | viability, T/C [12] 91.9% | viability, T/C [13] 78.6% | viability, T/C [14] 72.3% | viability, T/C [15] 61.8% | viability, T/C [16] 67.1% | viability, T/C [17] 72.2% | viability, T/C [18] 96.9% | viability, T/C [19] 75.4% | viability, T/C [20] 74.4% | viability, T/C [21] 67.1% | viability, T/C [22] 64.3% | viability, T/C [23] 70.6% | viability, T/C [24] 93.2% | viability, T/C [25] 71.4% | viability, T/C [26] 71.9% | viability, T/C [27] 59.4% | viability, T/C [28] 63% | viability, T/C [29] 71.5% | viability, T/C [30] 37.9% | viability, T/C [31] 27.4% | viability, T/C [32] 23.2% | viability, T/C [33] 24.6% | viability, T/C [34] 23.8% | viability, T/C [35] 31.6%

Nc1ncn(C2CC(O)C(CO)O2)c(=O)n1 (centres undefined)
> 1000 nM and 982 nM: IC50 (curve of compound)
inactive: viability, T/C (compound 0.00316 µM) 102% and 96.5% and 89.6% | viability, T/C (compound 0.01 µM) 104% and 110% and 93.2% | viability, T/C (compound 0.0316 µM) 98.8% and 108% and 88.1% | viability, T/C (compound 0.1 µM) 114% and 107% and 76.6% | viability, T/C (compound 0.316 µM) 137% and 110% and 65.2% | viability, T/C (compound 1 µM) 133% and 121% and 49.5%

COc1ccc([C@@H](O)c2cc(-c3ncnc4cc(N5CCOCC5)ccc34)c(F)cc2Cl)nn1 + Cc1ccccc1N=Nc1ccc(NC(=O)c2ccnn2C)c(C)c1
> 10000 nM: IC50 [1] | IC50 [2] | IC50 [3] | IC50 [4]
9260 nM: IC50 [5]
inactive: viability, T/C [6] 100% | viability, T/C [7] 98% | viability, T/C [8] 92.9% | viability, T/C [9] 80.2% | viability, T/C [10] 89.6% | viability, T/C [11] 55.8% | viability, T/C [12] 96.5% | viability, T/C [13] 104% | viability, T/C [14] 93.6% | viability, T/C [15] 80% | viability, T/C [16] 86.4% | viability, T/C [17] 52.2% | viability, T/C [18] 96.5% | viability, T/C [19] 101% | viability, T/C [20] 101% | viability, T/C [21] 98% | viability, T/C [22] 104% | viability, T/C [23] 62.7% | viability, T/C [24] 97.1% | viability, T/C [25] 89.4% | viability, T/C [26] 89.7% | viability, T/C [27] 79.8% | viability, T/C [28] 76.2% | viability, T/C [29] 54.2% | viability, T/C [30] 76.3% | viability, T/C [31] 81.9% | viability, T/C [32] 91% | viability, T/C [33] 80.5% | viability, T/C [34] 90.9% | viability, T/C [35] 47.5%

CC1(C)CCC(CN2CCN(c3ccc(C(=O)NS(=O)(=O)c4ccc(NCC5CCOCC5)c([N+](=O)[O-])c4)c(Oc4cnc5[nH]ccc5c4)c3)CC2)=C(c2ccc(Cl)cc2)C1 + CC(CO)NC(=O)c1cc(-c2ccc(Cl)cc2)nn(-c2cnn(C)c2)c1=O
inactive: viability, T/C [6] 99.3% | viability, T/C [7] 113% | viability, T/C [8] 102% | viability, T/C [9] 101% | viability, T/C [10] 84.8% | viability, T/C [11] 10.5% | viability, T/C [12] 108% | viability, T/C [13] 94.8% | viability, T/C [14] 96.7% | viability, T/C [15] 94.2% | viability, T/C [16] 96.2% | viability, T/C [17] 11.8% | viability, T/C [18] 112% | viability, T/C [19] 98.4% | viability, T/C [20] 109% | viability, T/C [21] 95.8% | viability, T/C [22] 92.1% | viability, T/C [23] 10.1% | viability, T/C [24] 95.2% | viability, T/C [25] 85.8% | viability, T/C [26] 83.1% | viability, T/C [27] 94.2% | viability, T/C [28] 88.1% | viability, T/C [29] 10.2% | viability, T/C [30] 77.5% | viability, T/C [31] 96.7% | viability, T/C [32] 83.9% | viability, T/C [33] 78.7% | viability, T/C [34] 74.4%
5560 nM: IC50 [4]
5710 nM: IC50 [3]
active: viability, T/C [35] 9.34%
5940 nM: IC50 [2]
5420 nM: IC50 [1]
4820 nM: IC50 [5]

Nc1ccccc1NC(=O)c1ccc(CNC(=O)OCc2cccnc2)cc1 + Cc1cncc(-c2nc(NCCc3c[nH]c4ccccc34)c3ncn(C(C)C)c3n2)c1
< 31.6 nM: IC50 [5]
3300 nM: IC50 [4]
active: viability, T/C [11] 8.44% | viability, T/C [17] 7.07% | viability, T/C [23] 8.57% | viability, T/C [29] 8.37% | viability, T/C [34] 2.97% | viability, T/C [35] 0.95%
3140 nM: IC50 [1]
3740 nM: IC50 [3]
inactive: viability, T/C [6] 91.1% | viability, T/C [7] 94.1% | viability, T/C [8] 100% | viability, T/C [9] 96% | viability, T/C [10] 49.7% | viability, T/C [12] 101% | viability, T/C [13] 105% | viability, T/C [14] 101% | viability, T/C [15] 93.5% | viability, T/C [16] 48.8% | viability, T/C [18] 82% | viability, T/C [19] 114% | viability, T/C [20] 92.2% | viability, T/C [21] 111% | viability, T/C [22] 57.1% | viability, T/C [24] 94.1% | viability, T/C [25] 97.7% | viability, T/C [26] 93.1% | viability, T/C [27] 86.1% | viability, T/C [28] 51.6% | viability, T/C [30] 42.4% | viability, T/C [31] 36.9% | viability, T/C [32] 23.9% | viability, T/C [33] 10.1%
3060 nM: IC50 [2]

NS(=O)(=O)OCC1CC(n2ccc3c(NC4CCc5ccccc54)ncnc32)CC1O (centres undefined)
inactive: viability, T/C (compound 0.0316 µM) 89.3% and 94.6% and 101% | viability, T/C (compound 0.1 µM) 102% (2×) and 88.4% | viability, T/C (compound 0.316 µM) 89.2% and 88.5% and 60.5% | viability, T/C (compound 1 µM) 45.8% and 44.2% and 18.4%
20.8% and 25.7% and 4.9%: viability, T/C (compound 3.16 µM)
5.48% and 7.98% and 1.51%: viability, T/C (compound 10 µM)
949 nM and 927 nM and 412 nM: IC50 (curve of compound)

O=C(C=Cc1cccc(S(=O)(=O)Nc2ccccc2)c1)NO + Cc1cncc(-c2nc(NCCc3c[nH]c4ccccc34)c3ncn(C(C)C)c3n2)c1
818 nM: IC50 [3]
168 nM: IC50 [5]
955 nM: IC50 [1]
active: viability, T/C [10] 8.19% | viability, T/C [11] 2.59% | viability, T/C [16] 7.8% | viability, T/C [17] 2.18% | viability, T/C [22] 9.76% | viability, T/C [23] 2.85% | viability, T/C [28] 10.6% | viability, T/C [29] 3.82% | viability, T/C [33] 10.7% | viability, T/C [34] 6.37% | viability, T/C [35] 3.77%
832 nM: IC50 [2]
inactive: viability, T/C [6] 98.9% | viability, T/C [7] 89.6% | viability, T/C [8] 94% | viability, T/C [9] 47.9% | viability, T/C [12] 92.1% | viability, T/C [13] 89.1% | viability, T/C [14] 94.8% | viability, T/C [15] 42% | viability, T/C [18] 105% | viability, T/C [19] 95.7% | viability, T/C [20] 86.8% | viability, T/C [21] 42.2% | viability, T/C [24] 106% | viability, T/C [25] 103% | viability, T/C [26] 111% | viability, T/C [27] 31.8% | viability, T/C [30] 76.9% | viability, T/C [31] 67.9% | viability, T/C [32] 28.2%
756 nM: IC50 [4]

COc1cccc2c1C(=O)c1c(O)c3c(c(O)c1C2=O)CC(O)(C(=O)CO)CC3OC1CC(N)C(O)C(C)O1 (centres undefined)
active: viability, T/C (compound 1 µM) 0.9% and 5.52% and 0.26% | viability, T/C (compound 3.16 µM) 0.36% and 0.59% and 0.22% | viability, T/C (compound 10 µM) 0.28% and 1.4% and 0.25%
inactive: viability, T/C (compound 0.0316 µM) 111% and 154% and 44.9% | viability, T/C (compound 0.1 µM) 74.9% and 144% and 30.5%

COc1cccc2c1C(=O)c1c(O)c3c(c(O)c1C2=O)CC(O)(C(=O)CO)CC3OC1CC(N)C(O)C(C)O1 (centres undefined) + Cc1cncc(-c2nc(NCCc3c[nH]c4ccccc34)c3ncn(C(C)C)c3n2)c1
< 31.6 nM: IC50 [5]
171 nM: IC50 [2]
126 nM: IC50 [4]
163 nM: IC50 [3]
200 nM: IC50 [1]
inactive: viability, T/C [6] 107% | viability, T/C [7] 78.6% | viability, T/C [8] 32.6% | viability, T/C [12] 110% | viability, T/C [13] 70.4% | viability, T/C [14] 28.2% | viability, T/C [18] 93.2% | viability, T/C [19] 71.3% | viability, T/C [20] 21.2% | viability, T/C [24] 83.5% | viability, T/C [25] 59.9% | viability, T/C [26] 10.8% | viability, T/C [30] 21.9% | viability, T/C [31] 18.5%
active: viability, T/C [9] 0.46% | viability, T/C [10] 0.03% | viability, T/C [11] 0.25% | viability, T/C [15] 0.27% | viability, T/C [16] 0.04% | viability, T/C [17] 0.22% | viability, T/C [21] 0.08% | viability, T/C [22] 0.32% | viability, T/C [23] 0.26% | viability, T/C [27] 0.05% | viability, T/C [28] 0.21% | viability, T/C [29] 0.79% | viability, T/C [32] 3.26% | viability, T/C [33] 0.12% | viability, T/C [34] 0.49% | viability, T/C [35] 0.31%
